Measurements reported in patent US4897382A, “Organic amide compounds derived from nitrogenous lipids” (priority 1981, dated 1990).

Experiments:
[1] = mice; cited from earlier work
[2] = GABA by itself; cited from earlier work
[3] = Anticonvulsant effects in rat (isoniazide convulsions); assay type: in vivo
Description: The in vivo activity of Product 1 was measured by the method described by Costa et al (E. Costa, A. Guidotti and C. C. Mao; "Evidence for involvement of GABA in the Action of Benzodiazepines: Studies in Rat Cerebellum" in Mechanism of Action of Benzodiazepines; Ed. by E. Costa and P. Greengard, New York, Raven Press. pp. 113-130 (1975)) and by Loescher and Frey (Loesher, W. and Frey, H. H.; "Effect of convulsant and anticonvulsant agents on level and metabolism of gamma-aminobutyric acid in mouse brain"; Naunyn-Schmiedeberg's Arch. Pharmacol. 296, 263-269 (1977)). These tests are based on the known activity of isoniazide to cause convulsions and a lowering of the GABA cerebral levels and the glutamic-decarboxylase enzyme activity.

[4] = background statement; cited from earlier work
[5] = tested on: synaptic membranes of the rat cortex; experiment: Binding of ^3H-GABA on synaptic membranes of the rat cortex (method of Enna and Snyder); conditions: for Product bound % (^3H-GABA binding on rat cortex membranes): ^3H-GABA 2.10^-8 M
Description: Table I presents the results of these tests, expressed in percentage of the fixed active product, comparing the in vitro activity of Product 1 with the activities of the individual components which comprise Product 1.

[6] = General pharmacological activity in vitro and in vivo; conditions: tested in vitro and in vivo in laboratory animals
[7] = isoniazide 160 mg/kg (s.c.) + GABA 8 mg/kg (i.p.)
[8] = test substance 10^-8 M, 0.01 µM
[9] = isoniazide 160 mg/kg (s.c.) + Product 1 20 mg/kg (i.p.)

| SMILES | effect when administered in vivo as measured by convulsion tests [1] | penetration of the encephalic barrier, in words [2] | Latency of the convulsions measured [3, 7] [s] | Number of animals in convulsions [3, 7] | Number of dead animals [3, 7] | in vitro / in vivo activity, in words [4] | Product bound % (^3H-GABA binding on rat cortex membranes) ([5]; test substance 10^-4 M, 100 µM) [%] | Product bound % (^3H-GABA binding on rat cortex membranes) ([5]; test substance 10^-5 M, 10 µM) [%] | Product bound % (^3H-GABA binding on rat cortex membranes) ([5]; test substance 10^-6 M, 1 µM) [%] | Product bound % (^3H-GABA binding on rat cortex membranes) ([5]; test substance 10^-7 M, 0.1 µM) [%] | Product bound % (^3H-GABA binding on rat cortex membranes) [5, 8] [%] | in vitro biological activity (GABA binding), in words ([5]; summary of Table I) | action in the central nervous system, in words [6] | in vivo (anticonvulsant) activity, in words ([3]; compared to GABA or sphingosine alone) | Latency of the convulsions measured [3, 9] [s] | Number of animals in convulsions [3, 9] | Number of dead animals [3, 9] |
| --- | --- | --- | --- | --- | --- | --- | --- | --- | --- | --- | --- | --- | --- | --- | --- | --- | --- |
| NCCCC(=O)O [GABA, Gamma-aminobutyric acid] | ineffective | incapable, by itself, of penetrating the encephalic barrier | 3100 ± 156 | 24/30 | 14 | active in vitro but relatively inactive in vivo | 20 | 20 | 25 | 45 | 90 | activity comparable to that of Product 1 | – | – | – | – | – |
| CCCCCCCCCCCCCC=CC(O)C(CO)NC(=O)CCCN (stereo not shown) [Product 1, Gamma-aminobutyrylsphingosine amide] | – | – | – | – | – | – | 20 | 25 | 40 | 60 | 95 | – | capable of acting directly in the central nervous system | far superior in vivo activity as compared to GABA or sphingosine alone | 4500 ± 330 | 9/30 | 3 |
